Data published in ChEMBL document CHEMBL1641501, “Discovery of selective irreversible inhibitors for EGFR-T790M” (Bioorg Med Chem Lett, 2011).
Activity calls are given as the source filed them. No cut-off for these calls is given here.

Assays:
PC-9 [1] = experiment: Antiproliferative activity against EGFR-deficient human PC9 cells; type: functional, cell-based
PC-9 [2] = experiment: Antiproliferative activity against growth-resistant human PC9 cells expressing EGFR E746_A750/T790M mutant; type: functional, cell-based
[3] = target: Tyrosine-protein kinase Blk (Homo sapiens) (UniProt P51451); experiment: Inhibition of Blk transfected with TEL fusion in mouse BA/F3 cells; type: cell-based; details: BaF3
[4] = Antiproliferative activity against mouse BA/F3 cells transfected with EGFR L858R/T790M/C797S mutant; type: functional, cell-based; details: BaF3
[5] = Antiproliferative activity against mouse BA/F3 cells transfected with EGFR E746_A750_del/T790M mutant; type: functional, cell-based; details: BaF3
[6] = Antiproliferative activity against mouse BA/F3 cells transfected with EGFR E746_A750/T790M mutant; type: functional, cell-based; details: BaF3
[7] = Antiproliferative activity against mouse BA/F3 cells transfected with EGFR E746_A750_del/T790M/C797S mutant; type: functional, cell-based; details: BaF3
[8] = target: T1, Cytoplasmic tyrosine-protein kinase BMX (Homo sapiens) (UniProt P51813); experiment: Inhibition of Bmx transfected with TEL fusion in mouse BA/F3 cells; type: cell-based; details: BaF3
T1 sequence (whole entry): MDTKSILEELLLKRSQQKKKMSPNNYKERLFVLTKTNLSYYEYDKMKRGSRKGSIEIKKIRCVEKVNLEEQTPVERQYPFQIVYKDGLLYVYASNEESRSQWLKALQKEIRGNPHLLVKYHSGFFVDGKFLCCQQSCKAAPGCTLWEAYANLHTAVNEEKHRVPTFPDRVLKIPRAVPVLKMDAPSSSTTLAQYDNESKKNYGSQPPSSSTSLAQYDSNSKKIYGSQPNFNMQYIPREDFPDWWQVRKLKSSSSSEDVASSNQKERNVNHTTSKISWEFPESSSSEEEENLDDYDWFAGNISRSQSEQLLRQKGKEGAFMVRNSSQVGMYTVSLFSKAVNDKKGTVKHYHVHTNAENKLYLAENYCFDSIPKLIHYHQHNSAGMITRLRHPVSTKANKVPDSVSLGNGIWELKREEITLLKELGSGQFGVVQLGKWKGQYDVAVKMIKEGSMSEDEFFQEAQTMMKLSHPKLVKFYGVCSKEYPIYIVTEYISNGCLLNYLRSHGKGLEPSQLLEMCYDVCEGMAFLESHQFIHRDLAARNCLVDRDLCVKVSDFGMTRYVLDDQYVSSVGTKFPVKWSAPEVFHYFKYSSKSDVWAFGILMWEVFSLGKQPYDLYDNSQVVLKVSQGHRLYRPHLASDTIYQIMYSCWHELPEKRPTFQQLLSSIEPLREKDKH

[9] = target: T2, Tyrosine-protein kinase JAK3 (Homo sapiens) (UniProt P52333); experiment: Inhibition of Jak3 transfected with TEL fusion in mouse BA/F3 cells; type: cell-based; details: BaF3
T2 sequence (whole entry): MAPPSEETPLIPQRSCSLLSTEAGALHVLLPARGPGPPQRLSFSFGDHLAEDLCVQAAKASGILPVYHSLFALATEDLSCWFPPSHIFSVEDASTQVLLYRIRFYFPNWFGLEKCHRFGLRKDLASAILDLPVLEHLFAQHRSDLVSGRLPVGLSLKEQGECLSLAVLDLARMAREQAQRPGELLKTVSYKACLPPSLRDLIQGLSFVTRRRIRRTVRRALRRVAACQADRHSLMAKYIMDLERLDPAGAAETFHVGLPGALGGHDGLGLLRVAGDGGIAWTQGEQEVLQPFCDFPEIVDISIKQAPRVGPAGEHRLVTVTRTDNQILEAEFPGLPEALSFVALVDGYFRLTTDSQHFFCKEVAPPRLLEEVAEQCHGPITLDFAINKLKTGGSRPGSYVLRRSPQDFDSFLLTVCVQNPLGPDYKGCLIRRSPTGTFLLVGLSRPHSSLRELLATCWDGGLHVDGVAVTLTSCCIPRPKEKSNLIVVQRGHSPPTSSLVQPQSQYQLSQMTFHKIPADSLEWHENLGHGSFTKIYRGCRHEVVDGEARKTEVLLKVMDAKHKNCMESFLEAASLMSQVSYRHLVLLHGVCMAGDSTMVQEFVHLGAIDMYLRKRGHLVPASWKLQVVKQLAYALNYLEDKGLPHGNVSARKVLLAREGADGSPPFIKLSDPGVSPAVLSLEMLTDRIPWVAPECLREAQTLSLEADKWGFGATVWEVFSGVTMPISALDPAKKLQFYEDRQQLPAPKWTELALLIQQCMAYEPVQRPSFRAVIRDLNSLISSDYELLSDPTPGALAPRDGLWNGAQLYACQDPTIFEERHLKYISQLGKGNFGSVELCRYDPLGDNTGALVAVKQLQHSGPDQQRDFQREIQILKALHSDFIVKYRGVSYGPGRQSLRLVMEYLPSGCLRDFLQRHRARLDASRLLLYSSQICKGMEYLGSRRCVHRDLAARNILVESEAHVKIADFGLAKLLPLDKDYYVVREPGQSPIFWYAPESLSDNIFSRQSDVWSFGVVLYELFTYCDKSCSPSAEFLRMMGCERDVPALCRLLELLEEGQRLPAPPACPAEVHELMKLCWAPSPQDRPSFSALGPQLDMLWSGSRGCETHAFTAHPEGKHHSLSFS

[10] = Antiproliferative activity against mouse BA/F3 cells transfected with EGFR L858R/T790M mutant; type: functional, cell-based; details: BaF3

Tyrosine-protein kinase Blk (Homo sapiens), sequence (P51451 2-505 limits assumed): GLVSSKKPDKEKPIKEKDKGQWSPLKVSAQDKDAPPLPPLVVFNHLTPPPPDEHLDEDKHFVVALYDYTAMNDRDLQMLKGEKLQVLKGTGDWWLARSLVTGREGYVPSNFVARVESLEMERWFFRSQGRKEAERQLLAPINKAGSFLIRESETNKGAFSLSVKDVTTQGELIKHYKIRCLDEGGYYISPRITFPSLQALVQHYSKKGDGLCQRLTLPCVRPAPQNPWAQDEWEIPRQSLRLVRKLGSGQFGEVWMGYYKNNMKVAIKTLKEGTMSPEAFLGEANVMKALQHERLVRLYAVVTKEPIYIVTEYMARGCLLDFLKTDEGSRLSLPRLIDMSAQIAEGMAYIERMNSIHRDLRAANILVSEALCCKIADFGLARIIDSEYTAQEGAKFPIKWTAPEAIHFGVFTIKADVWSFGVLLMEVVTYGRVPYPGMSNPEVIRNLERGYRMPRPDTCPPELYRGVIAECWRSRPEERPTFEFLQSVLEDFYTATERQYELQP

| EC50 (PC-9 [1]) | EC50 (PC-9 [2]) | SMILES | also measured |
| --- | --- | --- | --- |
| 1 µM | 5 µM | C=CC(=O)N1CCCC(Nc2nc(Nc3ccc(N4CCN(C)CC4)cc3)nc3[nH]cnc23)C1 (centres undefined) |  |
| 0.08 µM | > 1 µM | C=CC(=O)Nc1cccc(Oc2ccnc(Nc3ccc(N4CCN(C)CC4)cc3)n2)c1 |  |
| 0.02 µM | 0.02 µM | C=CC(=O)Nc1cccc(Sc2nc(Nc3ccc(N4CCN(C)CC4)cc3OC)ncc2Cl)c1 |  |
| 0.3 µM | 0.6 µM | C=CC(=O)Nc1cccc(Oc2nc(Nc3ccc(N4CCN(C)CC4)cc3)nc3[nH]cnc23)c1 |  |
| 0.8 µM | 0.9 µM | C=CC(=O)Nc1cccc(Oc2nc(Nc3ccc(N4CCN(C)CC4)cc3)ncc2Br)c1 |  |
| 0.08 µM | 0.1 µM | C=CC(=O)Nc1cccc(Oc2nc(Nc3ccc(N4CCC(N5CCN(C)CC5)CC4)cc3OC)ncc2Cl)c1 |  |
| 0.2 µM | 0.8 µM | C=CC(=O)Nc1cccc(Oc2nc(Nc3ccc(N4CCC(O)CC4)cc3OC)ncc2Cl)c1 |  |
| 7 µM | 10 µM | C=CC(=O)N1CCCC(Nc2nc(Nc3ccc(N(C)C(=O)CC)cc3)nc3[nH]cnc23)C1 (centres undefined) |  |
|  | 0.2 µM | C=CC(=O)Nc1cccc(Oc2nc(Nc3ccc(C4=CCN(C)CC4)cc3OC)ncc2Cl)c1 |  |
|  | 0.9 µM | C=CC(=O)Nc1cccc(Oc2nc(Nc3ccc(-c4ccncc4)cc3OC)ncc2Cl)c1 |  |
| 0.9 µM | 6 µM | C=CC(=O)N1CCCC(N(C)c2nc(Nc3ccc(N(C)C(=O)CC)cc3)nc3[nH]cnc23)C1 (centres undefined) |  |
|  | 0.5 µM | C=CC(=O)Nc1cccc(Oc2nc(Nc3ccc(C(=O)NCCN4CCOCC4)cc3OC)ncc2Cl)c1 |  |
| 0.04 µM | 0.02 µM | C=CC(=O)Nc1cccc(Nc2nc(Nc3ccc(N4CCN(C)CC4)cc3OC)ncc2Cl)c1 |  |
| 0.7 µM | 0.8 µM | C=CC(=O)Nc1cccc(Oc2nc(Nc3ccc(N4CCN(C)CC4)cc3)ncc2C(F)(F)F)c1 |  |
|  | 0.09 µM | C=CC(=O)Nc1cccc(Oc2nc(Nc3ccc(N4CCN(C)CC4)cc3C(F)(F)F)ncc2Cl)c1 |  |
| 0.8 µM | 0.8 µM | C=CC(=O)Nc1cccc(Oc2nc(Nc3ccc(C(=O)N4CCN(C)CC4)cc3)ncc2Cl)c1 |  |
| 0.006 µM | 0.008 µM | C=CC(=O)Nc1cccc(Sc2nc(Nc3ccc(N4CCN(C)CC4)cc3)ncc2Cl)c1 |  |
|  | 0.008 µM | C=CC(=O)Nc1cccc(Oc2nc(Nc3ccc(CCN4CCN(C)CC4)cc3)ncc2Cl)c1 |  |
| 6 µM | 8 µM | C=CC(=O)Nc1cccc(Oc2[nH]cnc3ncc(-c4cnc5ccccc5c4)c2-3)c1 |  |

| EC50 (PC-9 [1]) | EC50 (PC-9 [2]) | SMILES | also measured |
| --- | --- | --- | --- |
|  | 0.42 µM | C=CC(=O)Nc1cccc(Oc2nc(Nc3ccc(CN4CCN(C)CC4)cc3C(F)(F)F)ncc2Cl)c1 |  |
|  | 0.15 µM | C=CC(=O)Nc1cccc(Oc2nc(Nc3ccc(N4CCOCC4)cc3OC)ncc2Cl)c1 |  |
| 0.1 µM | 0.2 µM | C=CC(=O)Nc1cccc(Oc2nc(Nc3ccc(C4CCCN(C)C4)cc3OC)ncc2Cl)c1 (centres undefined) |  |
| > 1 µM | > 1 µM | C=CC(=O)Nc1cccc(Oc2nc(Nc3ccc(N4CCN(C)CC4)cc3OC)ncc2Cl)c1Cl |  |
|  | 0.03 µM | C=CC(=O)Nc1cccc(Oc2nc(Nc3ccc(CN4CCN(C)CC4)cc3)ncc2Cl)c1 |  |
| 6 µM | 6 µM | C=CC(=O)Nc1cccc(Oc2ncnc3[nH]cc(-c4ccc(OC)cc4)c23)c1 |  |
|  | 0.031 µM | C=CC(=O)Nc1cccc(Oc2nc(Nc3ccc(N4CCN(C)CC4)cc3OC)ncc2Cl)c1F |  |
| > 1 µM | > 1 µM | C=CC(=O)Nc1cccc(Oc2nc(Nc3ccc(C(=O)N4CCN(C)CC4)cc3OC)ncc2Cl)c1 |  |
| 0.8 µM | 1 µM | C=CC(=O)Nc1cccc(Oc2nc(Nc3ccc(C(=O)NC4CCN(C)CC4)cc3)ncc2Cl)c1 |  |
| 0.036 µM | 0.014 µM | C=CC(=O)Nc1cccc(Oc2nc(Nc3ccc(N4CCN(C)CC4)cc3OC)ncc2Cl)c1 | inhibition [3]: Active; EC50 [4]: > 3.3 µM; EC50 [5]: 0.002 µM; EC50 [6]: 1.29 µM; EC50 [7]: > 3.3 µM; inhibition [8]: Active; inhibition [9]: Active; EC50 [10]: 0.008 µM |
| 10 µM | 10 µM | C=CC(=O)N1CCCC(Nc2nc(Nc3ccc(C(=O)N4CCN(C)CC4)cc3)nc3[nH]cnc23)C1 (centres undefined) |  |
| 0.5 µM | 0.5 µM | C=CC(=O)Nc1cccc(Oc2ncnc3[nH]cc(-c4cccnc4)c23)c1 |  |
| 0.5 µM | 0.8 µM | C=CC(=O)Nc1cccc(Oc2nc(Nc3ccc(C(=O)NC4CCN(C)CC4)cc3OC)ncc2Cl)c1 |  |
| 10 µM | 10 µM | C=CC(=O)Nc1ccc(Oc2ncnc3[nH]cc(-c4cnc5ccccc5c4)c23)cc1 |  |
| 0.015 µM | 0.003 µM | C=CC(=O)Nc1cccc(Oc2nc(Nc3ccc(N4CCN(C)CC4)cc3)ncc2Cl)c1 |  |
| 0.1 µM | 0.04 µM | C=CC(=O)Nc1cccc(Oc2nc(Nc3ccc(C4CCN(C)CC4)cc3OC)ncc2Cl)c1 |  |
|  | 0.02 µM | C=CC(=O)Nc1cc(F)cc(Oc2nc(Nc3ccc(N4CCN(C)CC4)cc3OC)ncc2Cl)c1 |  |
| 6 µM | 6 µM | C=CC(=O)Nc1ccc(Oc2ncnc3[nH]cc(-c4cccnc4)c23)cc1 |  |
|  | 0.8 µM | C=CC(=O)Nc1cccc(Oc2nc(Nc3ccc(F)cc3OC)ncc2Cl)c1 |  |

| SMILES | EC50 (PC-9 [1]) | EC50 (PC-9 [2]) | also measured |
| --- | --- | --- | --- |
| C=CC(=O)Nc1cccc(Oc2nc(Nc3ccc(CC(=O)N4CCN(C)CC4)cc3)ncc2Cl)c1 |  | 0.05 µM |  |
